From paper PMC7870075, “Physicochemical properties and formulation development of a novel compound inhibiting Staphylococcus aureus biofilm formation” (PLoS ONE, 2021)
Converted amounts (≈) assume the structure as drawn. Marks after values point to notes of the source that are not given here.

Assays:
Microsomal stability = format: in vitro ADME; conditions: mouse liver microsomes, NADPH, 37°C; read-out: half-life in mouse liver microsomes (t1/2)
Method: Microsomal stability assay was performed as previously described. CCG-211790 (100 mM stock solution in DMSO) was diluted 1000-fold with phosphate-buffered saline (PBS) containing up to 10% MeOH as a co-solvent. Compound (100 μM) was added to 366 μL of 100 mM phosphate buffer containing 3.3 mM MgCl2 and 10 μL of 20 mg/mL mouse liver microsomal extract (XenoTech, Lenexa, KS, USA). Enzymatic oxidation was initiated by adding 15 μL of 16.7 mg/mL NADPH in 100 mM phosphate buffer containing 3.3 mM MgCl2. The reactions were carried out at 37°C for 60 min. Aliquots of the reaction mixture (30 μL) were sampled and the reaction was stopped by adding 90 μL cold acetonitrile containing an internal standard compound at each time point (0, 1, 3, 5, 10, 30, and 60 min). The quenched sample mixtures were centrifuged at 16,000 g for 10 min. The supernatant was then analyzed via an LC–MS/MS system equipped with a reverse-phase column.

Solubility in water = format: physicochemical
Method: The concentration of CCG-211790 in deionized water or aqueous solutions was determined using an Agilent series 1100 HPLC system (Agilent Technologies, Santa Clara, CA, USA) equipped with diode array detector. Sample separation was carried out with a Kinetex C18 column (75 mm × 3 mm, particle size 2.6 μm, Phenomenex Inc., Torrance, CA, USA). The mobile phase of acetonitrile-water (50:50, v/v) was used for chromatographic separation. The flow rate was set to 0.5 mL/min, column temperature to 35°C. The absorption was measured at wavelength 255 nm. The injection volume was 30 μL. The retention time of CCG-211790 was 4.9 min. The method detection limit was 0.02 mg/L. Calibration curves were established giving a correlation coefficient >0.9900. To determine the solubility of CCG-211790 in water, an excess amount of CCG-211790 powder was added into water. […] The sample aliquots (0.5 mL each) were centrifuged at 20,000 ×g for 5 min with Amicon Ultra-0.5 Centrifugal Filter Units (MWCO 3000 Da, Millipore Corp., Billerica, MA, USA). Solutions passing through the filter were diluted 2-fold with acetonitrile and CCG-211790 concentration in water was determined by HPLC analysis. The experiment was run in triplicate with mean values and standard deviations being reported.

[1] = Effect of pH on CCG-211790 degradation; format: physicochemical; conditions: for CCG-211790 concentration: 37°C; for chemical stability: twelve weeks
Method: The concentration of CCG-211790 in deionized water or aqueous solutions was determined using an Agilent series 1100 HPLC system (Agilent Technologies, Santa Clara, CA, USA) equipped with diode array detector. Sample separation was carried out with a Kinetex C18 column (75 mm × 3 mm, particle size 2.6 μm, Phenomenex Inc., Torrance, CA, USA). The mobile phase of acetonitrile-water (50:50, v/v) was used for chromatographic separation. The flow rate was set to 0.5 mL/min, column temperature to 35°C. The absorption was measured at wavelength 255 nm. The injection volume was 30 μL. The retention time of CCG-211790 was 4.9 min. The method detection limit was 0.02 mg/L. Calibration curves were established giving a correlation coefficient >0.9900. Effect of pH on CCG-211790 degradation was investigated at indicated pH (1–10) over a period of three months. Briefly, pH 1, 2 or 10 were achieved by dissolving CCG-211790 bulk powder in a mixture of acetonitrile and water (25:75, v/v) with the pH being adjusted with hydrochloride acid solution (12 mole/L) or sodium hydroxide solution (15 mole/L). Similarly, pH 3–9 were achieved by dissolving CCG-211790 powder in a mixture of acetonitrile and PBS (25:75, v/v) with the pH also being adjusted with the hydrochloride acid solution or the sodium hydroxide solution. All samples were incubated at 37°C. CCG-211790 concentrations in the mixture solutions were determined via HPLC analysis at predetermined time points (0, 2, 4 and 12 weeks).

COc1ccc2c(c1)-c1nc(SCC(F)(F)F)n(C)c(=O)c1C(C)(C)C2 [CCG-211790, 9-Methoxy-3,5,5-trimethyl-2-((2,2,2-trifluoroethyl)thio)-5,6-dihydrobenzo[h]quinazolin-4(3H)-one]
half-life (Microsomal stability): 19.6 min | solubility class according to the definition of US Pharmacopeia (Solubility in water; solubility less than 100 μg/mL): practically insoluble | solubility at 20 h (Solubility in water; thermodynamic from solid, room temperature, 20 h, HPLC): 0.038 ± 0.01 µg/mL (≈ 0.0988 µM) | CCG-211790 concentration ([1]; pH 1, 0 week, acetonitrile/water): 11.1 µg/mL | CCG-211790 concentration ([1]; pH 1, 2 weeks, acetonitrile/water): 9.4 ^* μg/mL | CCG-211790 concentration ([1]; pH 1, 4 weeks, acetonitrile/water): 7.2 ^** μg/mL | CCG-211790 concentration ([1]; pH 1, 12 weeks, acetonitrile/water): 2.1 ^** μg/mL | chemical stability ([1]; pH 1, 37°C): degraded | CCG-211790 concentration ([1]; pH 2, 0 week, acetonitrile/water): 11.6 µg/mL | CCG-211790 concentration ([1]; pH 2, 2 weeks, acetonitrile/water): 11.9 µg/mL | CCG-211790 concentration ([1]; pH 2, 4 weeks, acetonitrile/water): 11.2 ^* μg/mL | CCG-211790 concentration ([1]; pH 2, 12 weeks, acetonitrile/water): 10.7 ^* μg/mL | chemical stability ([1]; pH 2–10, 37°C): maintained most chemical stability | CCG-211790 concentration ([1]; pH 3, 0 week, acetonitrile/PBS): 11.9 µg/mL | CCG-211790 concentration ([1]; pH 3, 2 weeks, acetonitrile/PBS): 11.9 µg/mL | CCG-211790 concentration ([1]; pH 3, 4 weeks, acetonitrile/PBS): 11.4 µg/mL | CCG-211790 concentration ([1]; pH 3, 12 weeks, acetonitrile/PBS): 11.7 µg/mL | CCG-211790 concentration ([1]; pH 4, 0 week, acetonitrile/PBS): 10.9 µg/mL | CCG-211790 concentration ([1]; pH 4, 2 weeks, acetonitrile/PBS): 11.4 µg/mL | CCG-211790 concentration ([1]; pH 4, 4 weeks, acetonitrile/PBS): 11.6 ^* μg/mL | CCG-211790 concentration ([1]; pH 4, 12 weeks, acetonitrile/PBS): 11.3 µg/mL | CCG-211790 concentration ([1]; pH 5, 0 week, acetonitrile/PBS): 11.0 µg/mL | CCG-211790 concentration ([1]; pH 5, 2 weeks, acetonitrile/PBS): 11.3 ^* μg/mL | CCG-211790 concentration ([1]; pH 5, 4 weeks, acetonitrile/PBS): 11.5 µg/mL | CCG-211790 concentration ([1]; pH 5, 12 weeks, acetonitrile/PBS): 11.2 µg/mL | CCG-211790 concentration ([1]; pH 6, 0 week, acetonitrile/PBS): 11.1 µg/mL | CCG-211790 concentration ([1]; pH 6, 2 weeks, acetonitrile/PBS): 11.4 µg/mL | CCG-211790 concentration ([1]; pH 6, 4 weeks, acetonitrile/PBS): 11.0 µg/mL | CCG-211790 concentration ([1]; pH 6, 12 weeks, acetonitrile/PBS): 10.1 µg/mL | CCG-211790 concentration ([1]; pH 7, 0 week, acetonitrile/PBS): 11.8 µg/mL | CCG-211790 concentration ([1]; pH 7, 2 weeks, acetonitrile/PBS): 11.2 ^* μg/mL | CCG-211790 concentration ([1]; pH 7, 4 weeks, acetonitrile/PBS): 10.9 ^* μg/mL | CCG-211790 concentration ([1]; pH 7, 12 weeks, acetonitrile/PBS): 11.5 µg/mL | CCG-211790 concentration ([1]; pH 8, 0 week, acetonitrile/PBS): 11.2 µg/mL | CCG-211790 concentration ([1]; pH 8, 2 weeks, acetonitrile/PBS): 11.2 µg/mL | CCG-211790 concentration ([1]; pH 8, 4 weeks, acetonitrile/PBS): 11.1 µg/mL | CCG-211790 concentration ([1]; pH 8, 12 weeks, acetonitrile/PBS): 11.6 µg/mL | CCG-211790 concentration ([1]; pH 9, 0 week, acetonitrile/PBS): 11.0 µg/mL | CCG-211790 concentration ([1]; pH 9, 2 weeks, acetonitrile/PBS): 11.3 ^* μg/mL | CCG-211790 concentration ([1]; pH 9, 4 weeks, acetonitrile/PBS): 11.2 µg/mL | CCG-211790 concentration ([1]; pH 9, 12 weeks, acetonitrile/PBS): 10.5 µg/mL | CCG-211790 concentration ([1]; pH 10, 0 week, acetonitrile/water): 10.4 µg/mL | CCG-211790 concentration ([1]; pH 10, 2 weeks, acetonitrile/water): 11.0 ^* μg/mL | CCG-211790 concentration ([1]; pH 10, 4 weeks, acetonitrile/water): 10.5 µg/mL | CCG-211790 concentration ([1]; pH 10, 12 weeks, acetonitrile/water): 10.7 ^* μg/mL
